The values below come from ChEMBL document CHEMBL5584342, “The Missing Link(er): A Roadmap to Macrocyclization in Drug Discovery” (J Med Chem, 2024).

The series in a line: Lipophilicity, log D of compound at pH 7.4. The following applies: buffer.

For the compound `CO[C@H]1/C(F)=C/C[C@H](C)[C@@H](C)S(=O)(=O)NC(=O)c2ccc3c(c2)N(C[C@@H]2CCO[C@H]21)C[C@@]1(CCCc2cc(Cl)ccc21)CO3`, the log distribution coefficient (logD) amounted to 3.
